Measured values from patent US6503935B1, “Imidazoles and related compounds as α1A agonists” (Abbott Laboratories, priority 1998, dated 2003).
Where a name gives a salt, the structure may show the parent alone. Read-outs that look alike come from different tables or passages of the source.

Experiments:
[1] = molecular target: T1, α1A (rat submaxillary gland) (Rattus norvegicus, UniProt P43140); assay: Radioligand binding with [3H]-prazosin, α1A; conditions: rat submaxillary gland, [3H]-prazosin
T1 construct: α1A (rat submaxillary gland); from tissue; host or cells: rat submaxillary gland
T1 sequence (P43140 1-466): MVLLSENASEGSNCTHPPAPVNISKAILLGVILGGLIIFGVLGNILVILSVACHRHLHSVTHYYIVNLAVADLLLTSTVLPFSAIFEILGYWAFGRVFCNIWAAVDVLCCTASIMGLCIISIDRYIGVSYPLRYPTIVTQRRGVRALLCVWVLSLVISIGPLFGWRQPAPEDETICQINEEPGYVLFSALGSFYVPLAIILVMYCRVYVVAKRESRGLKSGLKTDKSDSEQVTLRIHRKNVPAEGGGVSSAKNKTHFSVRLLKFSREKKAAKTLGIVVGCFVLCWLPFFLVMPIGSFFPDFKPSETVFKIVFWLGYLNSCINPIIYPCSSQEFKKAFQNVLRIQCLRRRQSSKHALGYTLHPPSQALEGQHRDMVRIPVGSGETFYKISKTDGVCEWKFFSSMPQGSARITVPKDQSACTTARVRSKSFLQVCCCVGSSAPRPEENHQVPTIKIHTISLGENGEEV
Method: (§1) For purposes of discussing α1 adrenoceptor subtypes, the IUPHAR convention of using lower case letters to define molecular clones and upper case letters to indicate pharmacologically defined adrenoceptors has been followed. Compounds of formula I were evaluated in radioligand binding assays specific for α1A (rat submaxillary gland), α1b (hamster receptor expressed in mouse fibroblasts) and α1d (rat receptor expressed in mouse fibroblasts) using [^3H]-prazosin as the radioligand as described in Knepper, et al. J. Pharm.

α1A (rabbit urethra) = molecular target: T2, α1A (rabbit urethra) (Oryctolagus cuniculus, UniProt O02824); assay: Agonist contraction of smooth muscle tissue, rabbit urethra; assay type: cell-based; conditions: rabbit urethra; for EC50: read-out: Agonist Tissue Response (pD2) α1A (rab ureth) (converted)
T2 construct: tested for α1A functional activity using rabbit urethra; from tissue; host or cells: rabbit urethra
T2 sequence (O02824 1-466): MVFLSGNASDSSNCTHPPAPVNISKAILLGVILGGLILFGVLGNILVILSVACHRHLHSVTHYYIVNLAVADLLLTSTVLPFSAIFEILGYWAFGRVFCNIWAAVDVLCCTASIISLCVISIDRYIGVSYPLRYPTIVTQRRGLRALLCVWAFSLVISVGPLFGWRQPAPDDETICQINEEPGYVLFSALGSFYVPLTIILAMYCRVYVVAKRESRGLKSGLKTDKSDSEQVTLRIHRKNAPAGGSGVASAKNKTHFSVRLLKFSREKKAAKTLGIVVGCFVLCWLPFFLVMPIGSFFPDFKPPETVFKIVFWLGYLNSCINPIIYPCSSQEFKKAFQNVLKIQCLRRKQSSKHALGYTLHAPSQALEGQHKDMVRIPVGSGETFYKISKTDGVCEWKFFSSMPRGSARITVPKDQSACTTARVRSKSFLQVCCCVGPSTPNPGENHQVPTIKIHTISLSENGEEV
Method: Most of the compounds were tested for α1A functional activity using rabbit urethra as follows. Female New Zealand white rabbits (2.0-3.5 Kg) were sedated with CO2 and decapitated. […] Subsequent experimental conditions were as described above for the other tissues. Agonist concentration response curves were cumulative except for the vas deferens assay in which the transient response made such measurements impractical.

α1B (rat spleen) = molecular target: T3, α1B (rat spleen) (Rattus norvegicus, UniProt P15823); assay: Agonist contraction of smooth muscle tissue, rat spleen; assay type: cell-based; conditions: rat spleen; for EC50: read-out: Agonist Tissue Response (pD2) α1B (rat spleen) (converted)
T3 construct: α1B (rat spleen) and α1D (rat aorta) receptors; from tissue; host or cells: rat spleen
T3 sequence (P15823 1-515): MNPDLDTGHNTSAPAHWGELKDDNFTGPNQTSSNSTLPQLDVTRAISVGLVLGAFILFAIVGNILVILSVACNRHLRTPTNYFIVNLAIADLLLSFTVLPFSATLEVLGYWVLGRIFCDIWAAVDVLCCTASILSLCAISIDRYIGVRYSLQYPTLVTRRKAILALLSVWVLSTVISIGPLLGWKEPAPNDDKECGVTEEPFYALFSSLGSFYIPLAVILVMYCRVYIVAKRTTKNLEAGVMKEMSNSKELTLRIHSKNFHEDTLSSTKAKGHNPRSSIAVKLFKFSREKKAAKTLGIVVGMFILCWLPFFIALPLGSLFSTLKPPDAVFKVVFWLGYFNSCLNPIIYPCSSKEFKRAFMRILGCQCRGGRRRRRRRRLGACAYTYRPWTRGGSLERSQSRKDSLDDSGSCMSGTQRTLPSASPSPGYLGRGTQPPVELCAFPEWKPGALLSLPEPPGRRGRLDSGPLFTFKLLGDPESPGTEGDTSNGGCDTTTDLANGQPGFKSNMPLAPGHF

α1D (rat aorta) = molecular target: T4, α1D (rat aorta) (Rattus norvegicus, UniProt P23944); assay: Agonist contraction of smooth muscle tissue, rat aorta; assay type: cell-based; conditions: rat aorta, endothelium removed; for EC50: read-out: Agonist Tissue Response (pD2) α1D (rat aorta) (converted)
T4 construct: α1B (rat spleen) and α1D (rat aorta) receptors; from tissue; host or cells: rat aorta strips, endothelium removed
T4 sequence (P23944 1-561): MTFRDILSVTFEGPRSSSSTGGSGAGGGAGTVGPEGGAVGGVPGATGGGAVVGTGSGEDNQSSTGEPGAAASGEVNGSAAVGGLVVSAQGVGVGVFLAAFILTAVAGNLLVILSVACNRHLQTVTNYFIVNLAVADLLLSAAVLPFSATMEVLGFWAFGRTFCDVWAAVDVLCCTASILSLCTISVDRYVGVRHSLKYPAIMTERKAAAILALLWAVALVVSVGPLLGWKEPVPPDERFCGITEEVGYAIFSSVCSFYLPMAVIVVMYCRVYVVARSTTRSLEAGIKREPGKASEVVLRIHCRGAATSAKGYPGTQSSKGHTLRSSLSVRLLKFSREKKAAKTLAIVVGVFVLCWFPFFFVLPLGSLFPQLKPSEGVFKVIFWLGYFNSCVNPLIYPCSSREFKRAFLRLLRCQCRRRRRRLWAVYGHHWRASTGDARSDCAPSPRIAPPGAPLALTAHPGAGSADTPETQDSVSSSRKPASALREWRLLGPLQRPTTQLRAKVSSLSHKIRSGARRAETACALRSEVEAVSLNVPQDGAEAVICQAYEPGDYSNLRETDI

[2] = molecular target: T5, α1d (rat receptor expressed in mouse fibroblasts) (Rattus norvegicus, UniProt P23944); assay: Radioligand binding with [3H]-prazosin, α1d; conditions: rat receptor expressed in mouse fibroblasts, [3H]-prazosin
T5 construct: expressed in transfected cells; host or cells: mouse fibroblasts
T5 sequence (P23944 1-561): T4 sequence (P23944 1-561)
Method: as §1

[3] = read-out: Radioligand Binding Ki α1d (Rat)

Compound	Ki [1] [µM]	EC50 (α1A (rabbit urethra)) [µM]	other results
O=S(=O)(CC(F)(F)F)Nc1cccc2c1CCCC2c1c[nH]cn1 (single isomer, unassigned; (-)) [Example 35, (−)-N-[5,6,7,8-tetrahydro-5-(1H-imidazol-4-yl)-1-naphthalenyl]-2,2,2-trifluoroethanesulfonamide]	2.18	81.3	EC50 (α1B (rat spleen)): > 1000 µM; EC50 (α1D (rat aorta)): > 1000 µM
Cc1ccc(NS(C)(=O)=O)c2c1C(c1c[nH]cn1)CCC2 (stereo not drawn) [Example 23, N-[5,6,7,8-tetrahydro-5-(1H-imidazol-4-yl)-4-methyl-1-naphthalenyl]methanesulfonamide, maleate]	0.391	39.8	Ki [2, 3]: 2.67 µM; EC50 (α1B (rat spleen)): > 1000 µM; EC50 (α1D (rat aorta)): > 1000 µM
CS(=O)(=O)Nc1ccc(O)c2c1CCCC2c1c[nH]cn1 (stereo not drawn) [Example 24, N-[5,6,7,8-tetrahydro-4-hydroxy-5-(1H-imidazol-4-yl)-1-naphthalenyl]methanesulfonamide, maleate]	0.712	24.5	EC50 (α1B (rat spleen)): > 1000 µM; EC50 (α1D (rat aorta)): > 1000 µM
CCS(=O)(=O)Nc1ccc(OC)c2c1CCCC2c1c[nH]cn1.O=C(O)C=CC(=O)O (stereo not drawn) [Example 25, maleate]	2.46	–	–
CCS(=O)(=O)Nc1ccc(OC)c2c1CCCC2c1c[nH]cn1.O=C(O)C=CC(=O)O (stereo not drawn) [Example 25]	–	–	Agonist Tissue Response (pD2) α1A (rab ureth) (α1A (rabbit urethra)): 4.48; Agonist Tissue Response (pD2) α1B (rat spleen) (α1B (rat spleen)): 3.12; Agonist Tissue Response (pD2) α1D (rat aorta) (α1D (rat aorta)): <3.00
O=C(O)C=CC(=O)O.O=S(=O)(Nc1cccc2c1CCCC2c1c[nH]cn1)C1CC1 (stereo not drawn) [Example 27, N-[5,6,7,8-tetrahydro-(1H-imidazol-4-yl)-1-naphthalenyl]cyclopropanesulfonamide, maleate]	0.531	–	Ki [2, 3]: 2.67 µM; Agonist Tissue Response (pD2) α1A (rab ureth) (α1A (rabbit urethra)): 5.25
CS(=O)(=O)Nc1cccc2c1CCCCC2c1c[nH]cn1 (stereo not drawn) [Example 38, N-[5-(1H-imidazol-4-yl)-6,7,8,9-tetrahydro-5H-benzo[a]cyclohepten-1-yl]methanesulfonamide, maleate]	1.36	19.1	Ki [2, 3]: 2.54 µM
CCS(=O)(=O)Nc1cccc2c1CCCCC2c1c[nH]cn1 (stereo not drawn) [Example 40, N-[5-(1H-imidazol-4-yl)-6,7,8,9-tetrahydro-5H-benzo[a]cyclohepten-1-yl]ethanesulfonamide, maleate]	1.34	–	–
CCS(=O)(=O)Nc1ccc(Cl)c2c1CCCC2c1c[nH]cn1 (stereo not drawn) [Example 42, N-[4-chloro-5-(1H-imidazol-4-yl)-5,6,7,8-tetrahydro-1-naphthalenyl]ethanesulfonamide, maleate]	0.359	> 1000	Ki ([2]; Radioligand Binding Ki α1d (Rat)): 2.28 µM
CS(=O)(=O)Nc1ccc(Cl)c2c1CCCC2c1c[nH]cn1 (stereo not drawn) [Example 43, N-[4-chloro-5-(1H-imidazol-4-yl)-5,6,7,8-tetrahydro-1-naphthalenyl]methanesulfonamide, maleate]	0.445	44.7	Ki [2, 3]: 2.86 µM; EC50 (α1B (rat spleen)): > 1000 µM; EC50 (α1D (rat aorta)): > 1000 µM
CCC(O)(c1cccc(NS(=O)(=O)CC)c1)c1c[nH]cn1 (stereo not drawn) [Example 55, N-[3-(1-hydroxy-1-(1H-imidazol-4-yl)propyl)phenyl]ethanesulfonamide]	3.65	–	Ki [2, 3]: 2.34 µM
Cc1noc(C)c1S(=O)(=O)Nc1cccc2c1CCCC2c1cnc[nH]1 (stereo not drawn) [Example 61, N-[5-(1H-imidazol-5-yl)-5,6,7,8-tetrahydro-1-naphthalenyl]-3,5-dimethyl-4-isoxazolesulfonamide]	1.56	–	–
CCCS(=O)(=O)Nc1cccc2c1CCCC2c1c[nH]cn1 (stereo not drawn) [Example 63, N-[5-(1H-imidazol-5-yl)-5,6,7,8-tetrahydro-1-naphthalenyl]-1-propanesulfonamide]	1.72	–	–
CCCCS(=O)(=O)Nc1cccc2c1CCCC2c1cnc[nH]1 (stereo not drawn) [Example 64, N-[5-(1H-imidazol-5-yl)-5,6,7,8-tetrahydro-1-naphthalenyl]-1-butanesulfonamide]	4.15	–	–
Cc1ccc(S(=O)(=O)Nc2cccc3c2CCCC3c2cnc[nH]2)cc1 (stereo not drawn) [Example 68, N-[5-(1H-imidazol-5-yl)-5,6,7,8-tetrahydro-1-naphthalenyl]-4-methylbenzenesulfonamide]	5.28	–	–
Cc1ccccc1S(=O)(=O)Nc1cccc2c1CCCC2c1cnc[nH]1 (stereo not drawn) [Example 69, N-[5-(1H-imidazol-5-yl)-5,6,7,8-tetrahydro-1-naphthalenyl]-2-methylbenzenesulfonamide]	4.47	–	–
O=S(=O)(Nc1cccc2c1CCCC2c1cnc[nH]1)c1ccc(Cl)s1 (stereo not drawn) [Example 72, 5-Chloro-N-[5-(1H-imidazol-5-yl)-5,6,7,8-tetrahydro-1-naphthalenyl]-2-thiophenesulfonamide]	1.51	–	Ki [2, 3]: 2.28 µM
Cc1nn(C)c(Cl)c1S(=O)(=O)Nc1cccc2c1CCCC2c1cnc[nH]1 (stereo not drawn) [Example 74, 5-Chloro-N-[5-(1H-imidazol-5-yl)-5,6,7,8-tetrahydro-1-naphthalenyl]-1,3-dimethyl-1H-pyrazole-4-sulfonamide]	5.06	–	–
CC(=O)Nc1nc(C)c(S(=O)(=O)Nc2cccc3c2CCCC3c2cnc[nH]2)s1 (stereo not drawn) [Example 76, N-[5-({[5-(1H-imidazol-5-yl)-5,6,7,8-tetrahydro-1-naphthalenyl]amino}sulfonyl)-4-methyl-1,3-thiazol-2-yl]acetamide]	3.21	–	–
O=S(=O)(CC(F)(F)F)Nc1cccc(Cc2c[nH]cn2)c1 [Example 78, 2,2,2-trifluoro-N-[3-(1H-imidazol-4-ylmethyl)phenyl]ethanesulfonamide, maleate]	–	8.91	–
Methyl 2-({[5-(1H-imidazol-5-yl)-5,6,7,8-tetrahydro-1-naphthalenyl]amino}sulfonyl)-3-thiophenecarboxylate [Example 75]	4.6	–	–
